Calls of active or inactive are those of the source. No cut-off for these calls is given here.
Columns and labels:
B16 [1] = assay: Compound was evaluated for antitumor activity against B16 melanoma cell lines in culture; assay type: functional, Mus musculus
L1210 [2] = assay: Compound was evaluated for antitumor activity against L-1210 cell lines in culture; assay type: functional, Mus musculus
[3] = Compound was evaluated for its concentration for antiviral activity against the replication of herpes simplex virus type 1 in monkey kidney cells; assay type: functional, Cercopithecidae
B16 [4] = assay: Compound was evaluated for antitumor activity against B16 melanoma cell lines in culture; IN-Inactive at 10E-4 concentration; assay type: functional, cell-based; details: Mus musculus
L1210 [5] = assay: Compound was evaluated for antitumor activity against L-1210 cell lines in culture; IN-Inactive at 10E-4 concentration; assay type: functional, cell-based; details: Mus musculus

Structure (SMILES): C#Cc1cn([C@@H]2O[C@H](CO)[C@@H](O)[C@@H]2F)c(=O)nc1N
- Inhibition (B16 [1]): ~60 µM
- Inhibition (L1210 [2]): ~60 µM
- ID90 [3]: 50 µM

Structure (SMILES): C#Cc1cn([C@@H]2O[C@H](CO)[C@@H](O)[C@@H]2N=[N+]=[N-])c(=O)[nH]c1=O
- Inhibition (B16 [4]): inactive
- Inhibition (L1210 [5]): inactive

From ChEMBL document CHEMBL1122787, “Acetylenic nucleosides. 3. Synthesis and biological activities of some 5-ethynylpyrimidine nucleosides” (1984)
